Source: paper PMC9738107, “Targeting of the ELR+CXCL/CXCR1/2 Pathway Is a Relevant Strategy for the Treatment of Paediatric Medulloblastomas” (Cells, 2022)

Tests used:
Format in all cases: cell-based, human
DR1 and DR2 cells = assay: CXCL8-dependent migration in Boyden chamber; conditions: DR1 and DR2, 1 µM, 200 ng/mL CXCL8
Experimental: Figure 8 C29 is efficient on radioresistant MB cell lines. (A) Cell death after 48 h of treatment with control (DMSO, CT) or C29 1, 2.5, or 5 µM on radiation-resistant cells (RR) and normal cells (N), n = 3. Statistics were performed using the one-way method ANOVA. * p < 0.05, ** p < 0.01, *** p < 0.001. For this figure, DR1 = D1, DR2 = D2, HR1 = H1, HR2 = H2, and C8D1A = C8. (B) Proliferation of DR1/DR2 (A) and HR1/HR2 (B) radio-resistant cells after 1 µM C29 treatment or control (DMSO), n = 3. (C) Clonogenic assay on DR1, DR2 (n = 3) and HR1, HR2 (n = 3) cells after treatment with control (DMSO) or C29 (1 µM or 2.5 µM). […] Results are expressed as percentage of control (n = 3). […]
1500 Daoy, ONS ‐76, HD ‐MB03 or D341 Med cells were sown in triplicate in plates with six wells and the cells were counted daily for 8 days using a Coulter counter (Ville‐ pinte). The relative number of cells (compared to day 1) was determined daily. […]
Y = Y0 * exp(k * X) (Y= Cell number at day X; Y0= Cell number at day 0 (graphically calculated); X= Day following cell plating (cells plated at X0=0); k= Exponential growth constant rate. Doubling times were compared.
150 Daoy/DR1/DR2/ ONS ‐ 76 and 300 HD ‐ MB03/HR1/HR2 cells were seeded in trip‐ licate in 6‐well plates in the presence or absence of treatment (1 or 2∙5μM MCK140 or DMSO as control). […] The number of clones was quantified using ImageJ software. […]

Daoy cells = assay: Spheroid invasion, 3D culture; conditions: 1 µM, from day 2
Experimental: (§1) Figure 4 C29 reduces proliferation, migration, and invasion of naïve MB cells. (A) Proliferation of Daoy, ONS-76, HD-MB03, and D341Med wild-type cells after treatment with 1 μM C29 or the control (DMSO), n = 3. (B) Clonogenic assay on Daoy (n = 4), ONS-76 (n = 3) and HD -MB03 (n = 5) cells after treatment with control (DMSO) or C29 (1 μM or 2.5 μM). Scale = 500 μm. (C) Cell migration through the Boyden chamber of Daoy and ONS-76 cells specifically attracted by 200 ng/mL CXCL8. Results are expressed as percentage of control (DMSO) (n = 3). Scale = 1000 μm. (D) Spheroid invasion using 3D culture cell assays on Daoy (n = 4) and ONS-76 cells (n = 3) treated with control (DMSO) or C29 at a concentration of 1 μM on day 0, 1, and 2. Results are expressed as percentage of day 0, n = 4. Scale = 500 μm. Statistics were performed using Student t-test for 2 comparisons only or ANOVA test for multiple comparisons. * p < 0.05, ** p < 0.01, *** p < 0.001. […]
(§2) each month by using PlasmoTest Kit (#10L07‐MM, InvivoGen, Toulouse, France). Daoy and ONS‐76 belong to the Shh genetic subgroup, D341‐Med and HD‐MB03 to group 3. […]
(§3) (1, 2∙5, 5μM) for 48 hours. […]
(§4) 5000 cells were plated in 48 multi‐well plates coated with agarose 0∙8%. […] Images were recorded each day with the Evos XL Core Cell Imaging system (Thermo Fisher).

ONS-76 cells = assay: Spheroid invasion, 3D culture; conditions: ONS-76, 1 µM, from day 7
Experimental: as §1, §2, §3, §4

`O=C(Nc1cccc(Cl)c1)Nc1nc2ccc([N+](=O)[O-])cc2s1` [C29, 1-(3-chlorophenyl)-3-(6-nitrobenzo[d]thiazol-2-yl) urea] was tested, and the CXCL8-dependent migration (DR1 and DR2 cells) was “significantly inhibited”, the Spheroid invasion ability (Daoy cells) was “affected the invasion ability” and the Spheroid invasion ability (ONS-76 cells) was “affected the invasion ability”.
